Experimental data published in the supplement of paper PMC10307832.

Legend:
Assay in all cases: relative viability (nuclei count vs DMSO), 5 days (fraction); higher = more cells survive
A-427 = test system: A-427
In short: (§1)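 Five library-drug doses in √10 steps were combined with a fixed anchor-drug dose, or a single drug was given alone, by pin tool to lung cancer cell lines in 1536-well plates the day after seeding. Nuclei were stained and counted after 5 days. Relative viability is the nuclei count in treated wells over that in vehicle wells, taken as the median of duplicate plates.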

COR-L 105 = test system: COR-L 105
In short: as §1

H3255 = test system: H3255
In short: as §1

HCC-44 = test system: HCC-44
In short: as §1

HCC-827 = test system: HCC-827
In short: as §1

LCLC-103H = test system: LCLC-103H
In short: as §1

LOU-NH91 = test system: LOU-NH91
In short: as §1

LXF-289 = test system: LXF-289
In short: as §1

NCI-H1792 = test system: NCI-H1792
In short: as §1

NCI-H1915 = test system: NCI-H1915
In short: as §1

NCI-H1975 = test system: NCI-H1975
In short: as §1

NCI-H1993 = test system: NCI-H1993
In short: as §1

NCI-H2023 = test system: NCI-H2023
In short: as §1

NCI-H2087 = test system: NCI-H2087
In short: as §1

NCI-H520 = test system: NCI-H520
In short: as §1

SW 1573 = test system: SW 1573
In short: as §1

CN1CCN(CCOc2cc(OC3CCOCC3)c3c(Nc4c(Cl)ccc5c4OCO5)ncnc3c2)CC1 [Saracatinib] + CC(C)C[C@H](NC(=O)[C@H](Cc1ccccc1)NC(=O)c1cnccn1)B(O)O [Bortezomib] (partner 0.002 µM)
relative viability (A-427; first compound 0.02 µM): 1.03
relative viability (A-427; first compound 0.2 µM): 0.804
relative viability (A-427; first compound 0.6325 µM): 0.871
relative viability (A-427; first compound 2 µM): 0.981
relative viability (COR-L 105; first compound 0.02 µM): 1.11
relative viability (COR-L 105; first compound 0.2 µM): 0.699
relative viability (COR-L 105; first compound 0.6325 µM): 0.707
relative viability (COR-L 105; first compound 2 µM): 0.432
relative viability (H3255; first compound 0.02 µM): 0.864
relative viability (H3255; first compound 0.2 µM): 0.892
relative viability (H3255; first compound 0.6325 µM): 0.812
relative viability (H3255; first compound 2 µM): 0.272
relative viability (HCC-44; first compound 0.02 µM): 0.917
relative viability (HCC-44; first compound 0.2 µM): 0.78
relative viability (HCC-44; first compound 0.6325 µM): 0.93
relative viability (HCC-44; first compound 2 µM): 1.02
relative viability (HCC-827; first compound 0.02 µM): 0.965
relative viability (HCC-827; first compound 0.2 µM): 0.963
relative viability (HCC-827; first compound 0.6325 µM): 0.479
relative viability (HCC-827; first compound 2 µM): 0.306
relative viability (LCLC-103H; first compound 0.02 µM): 1.21
relative viability (LCLC-103H; first compound 0.2 µM): 0.963
relative viability (LCLC-103H; first compound 0.6325 µM): 1.09
relative viability (LCLC-103H; first compound 2 µM): 0.941
relative viability (LOU-NH91; first compound 0.02 µM): 0.538
relative viability (LOU-NH91; first compound 0.2 µM): 0.457
relative viability (LOU-NH91; first compound 0.6325 µM): 0.521
relative viability (LOU-NH91; first compound 2 µM): 0.533
relative viability (LXF-289; first compound 0.02 µM): 0.937
relative viability (LXF-289; first compound 0.2 µM): 0.959
relative viability (LXF-289; first compound 0.6325 µM): 0.966
relative viability (LXF-289; first compound 2 µM): 0.987
relative viability (NCI-H1792; first compound 0.02 µM): 0.956
relative viability (NCI-H1792; first compound 0.2 µM): 0.344
relative viability (NCI-H1792; first compound 0.6325 µM): 1.06
relative viability (NCI-H1792; first compound 2 µM): 0.914
relative viability (NCI-H1915; first compound 0.02 µM): 0.959
relative viability (NCI-H1915; first compound 0.2 µM): 0.813
relative viability (NCI-H1915; first compound 0.6325 µM): 0.978
relative viability (NCI-H1915; first compound 2 µM): 0.886
relative viability (NCI-H1975; first compound 0.02 µM): 0.356
relative viability (NCI-H1975; first compound 0.6325 µM): 0.443
relative viability (NCI-H1975; first compound 2 µM): 0.331
relative viability (NCI-H1993; first compound 0.02 µM): 1.18
relative viability (NCI-H1993; first compound 0.2 µM): 0.559
relative viability (NCI-H1993; first compound 2 µM): 0.67
relative viability (NCI-H2023; first compound 0.02 µM): 1.1
relative viability (NCI-H2023; first compound 0.2 µM): 0.902
relative viability (NCI-H2023; first compound 0.6325 µM): 1.05
relative viability (NCI-H2023; first compound 2 µM): 0.906
relative viability (NCI-H2087; first compound 0.02 µM): 0.87
relative viability (NCI-H2087; first compound 0.2 µM): 0.608
relative viability (NCI-H2087; first compound 0.6325 µM): 0.856
relative viability (NCI-H2087; first compound 2 µM): 0.711
relative viability (NCI-H520; first compound 0.02 µM): 0.663
relative viability (NCI-H520; first compound 0.2 µM): 0.431
relative viability (NCI-H520; first compound 0.6325 µM): 0.289
relative viability (NCI-H520; first compound 2 µM): 0.174
relative viability (SW 1573; first compound 0.02 µM): 0.997
relative viability (SW 1573; first compound 0.2 µM): 0.906
relative viability (SW 1573; first compound 0.6325 µM): 0.955
relative viability (SW 1573; first compound 2 µM): 0.933

Cc1cn(-c2cc(NC(=O)c3ccc(C)c(Nc4nccc(-c5cccnc5)n4)c3)cc(C(F)(F)F)c2)cn1 [Nilotinib] + CC(C)C[C@H](NC(=O)[C@H](Cc1ccccc1)NC(=O)c1cnccn1)B(O)O [Bortezomib] (partner 0.002 µM)
relative viability (A-427; first compound 0.001 µM): 0.928
relative viability (A-427; first compound 0.01 µM): 0.95
relative viability (A-427; first compound 0.03162 µM): 1.02
relative viability (A-427; first compound 0.1 µM): 0.536
relative viability (COR-L 105; first compound 0.001 µM): 0.903
relative viability (COR-L 105; first compound 0.01 µM): 0.812
relative viability (COR-L 105; first compound 0.03162 µM): 0.601
relative viability (COR-L 105; first compound 0.1 µM): 0.333
relative viability (H3255; first compound 0.001 µM): 0.917
relative viability (H3255; first compound 0.003162 µM): 0.656
relative viability (H3255; first compound 0.01 µM): 0.986
relative viability (H3255; first compound 0.03162 µM): 0.787
relative viability (H3255; first compound 0.1 µM): 0.558
relative viability (HCC-44; first compound 0.001 µM): 0.885
relative viability (HCC-44; first compound 0.003162 µM): 0.968
relative viability (HCC-44; first compound 0.01 µM): 0.853
relative viability (HCC-44; first compound 0.03162 µM): 0.871
relative viability (HCC-44; first compound 0.1 µM): 0.873
relative viability (HCC-827; first compound 0.003162 µM): 1.19
relative viability (HCC-827; first compound 0.01 µM): 1.08
relative viability (HCC-827; first compound 0.03162 µM): 1.07
relative viability (HCC-827; first compound 0.1 µM): 1.06
relative viability (LCLC-103H; first compound 0.001 µM): 1.08
relative viability (LCLC-103H; first compound 0.003162 µM): 1.29
relative viability (LCLC-103H; first compound 0.03162 µM): 1.15
relative viability (LCLC-103H; first compound 0.1 µM): 0.909
relative viability (LOU-NH91; first compound 0.001 µM): 0.523
relative viability (LOU-NH91; first compound 0.003162 µM): 0.46
relative viability (LOU-NH91; first compound 0.01 µM): 0.404
relative viability (LOU-NH91; first compound 0.03162 µM): 0.473
relative viability (LOU-NH91; first compound 0.1 µM): 0.524
relative viability (LXF-289; first compound 0.001 µM): 0.977
relative viability (LXF-289; first compound 0.003162 µM): 1.22
relative viability (LXF-289; first compound 0.01 µM): 1.11
relative viability (LXF-289; first compound 0.03162 µM): 0.977
relative viability (LXF-289; first compound 0.1 µM): 0.692
relative viability (NCI-H1792; first compound 0.001 µM): 0.94
relative viability (NCI-H1792; first compound 0.01 µM): 1.2
relative viability (NCI-H1792; first compound 0.1 µM): 1.23
relative viability (NCI-H1915; first compound 0.001 µM): 0.932
relative viability (NCI-H1915; first compound 0.003162 µM): 1.17
relative viability (NCI-H1915; first compound 0.01 µM): 1.18
relative viability (NCI-H1915; first compound 0.03162 µM): 0.823
relative viability (NCI-H1915; first compound 0.1 µM): 0.85
relative viability (NCI-H1975; first compound 0.001 µM): 0.32
relative viability (NCI-H1975; first compound 0.003162 µM): 0.315
relative viability (NCI-H1975; first compound 0.01 µM): 0.268
relative viability (NCI-H1975; first compound 0.03162 µM): 0.279
relative viability (NCI-H1975; first compound 0.1 µM): 0.171
relative viability (NCI-H1993; first compound 0.001 µM): 1.11
relative viability (NCI-H1993; first compound 0.003162 µM): 0.878
relative viability (NCI-H1993; first compound 0.01 µM): 1.06
relative viability (NCI-H1993; first compound 0.03162 µM): 0.896
relative viability (NCI-H1993; first compound 0.1 µM): 0.953
relative viability (NCI-H2023; first compound 0.001 µM): 1
relative viability (NCI-H2023; first compound 0.003162 µM): 0.691
relative viability (NCI-H2023; first compound 0.01 µM): 1.16
relative viability (NCI-H2023; first compound 0.03162 µM): 0.925
relative viability (NCI-H2023; first compound 0.1 µM): 0.206
relative viability (NCI-H2087; first compound 0.001 µM): 0.693
relative viability (NCI-H2087; first compound 0.003162 µM): 1.03
relative viability (NCI-H2087; first compound 0.01 µM): 0.762
relative viability (NCI-H2087; first compound 0.03162 µM): 0.68
relative viability (NCI-H2087; first compound 0.1 µM): 0.296
relative viability (NCI-H520; first compound 0.001 µM): 0.591
relative viability (NCI-H520; first compound 0.01 µM): 0.776
relative viability (NCI-H520; first compound 0.03162 µM): 0.526
relative viability (NCI-H520; first compound 0.1 µM): 0.34
relative viability (SW 1573; first compound 0.001 µM): 1.02
relative viability (SW 1573; first compound 0.003162 µM): 1.4
relative viability (SW 1573; first compound 0.01 µM): 1.54
relative viability (SW 1573; first compound 0.03162 µM): 0.796
relative viability (SW 1573; first compound 0.1 µM): 1.09
